IC50 data for 32 molecules are collected here from patent publication US11325899B2, “Benzofurane and benzothiophene derivatives as PGE2 receptor modulators” (IDORSIA PHARMACEUTICALS LTD, priority 2017, dated 2022).

As a reminder, the pIC50 is the negative decadic logarithm of the IC50, by convention in mol/L. A lower pIC50 goes with a high IC50.

Molecules are shown by their SMILES. pIC50: −log10 of the molar value.

T1 sequence (P35408 whole entry): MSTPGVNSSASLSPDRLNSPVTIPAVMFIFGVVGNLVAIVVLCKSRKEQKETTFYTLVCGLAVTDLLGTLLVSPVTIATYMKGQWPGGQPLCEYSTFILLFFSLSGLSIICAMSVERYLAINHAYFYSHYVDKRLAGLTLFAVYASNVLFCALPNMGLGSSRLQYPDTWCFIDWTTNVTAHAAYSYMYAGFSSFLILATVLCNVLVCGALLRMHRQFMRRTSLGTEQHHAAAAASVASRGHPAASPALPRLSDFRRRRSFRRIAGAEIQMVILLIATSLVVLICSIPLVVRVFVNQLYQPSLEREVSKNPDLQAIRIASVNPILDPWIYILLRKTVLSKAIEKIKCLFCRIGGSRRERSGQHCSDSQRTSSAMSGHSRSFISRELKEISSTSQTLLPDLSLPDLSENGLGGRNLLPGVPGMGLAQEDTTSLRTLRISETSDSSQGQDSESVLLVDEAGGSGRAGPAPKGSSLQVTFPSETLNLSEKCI

This experiment concerns the target T1, EP4 receptor (Homo sapiens, UniProt P35408).
T1 construct: BT549 breast cancer cells, express high endogenous EP4 levels and very low EP2 levels; host or cells: BT549 breast cancer cells
Nature of the experiment: hEP4 cAMP assay (BT549 breast cancer cells, HTRF cAMP, PGE2 stimulation). It is filed as cell-based. The conditions noted are these: antagonistic activity, PGE2 6 nM (EC80). An outline of the steps: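 BT549 cells, with endogenous EP4 and very low EP2, were preincubated 45 min at room temperature with compound in HBSS/HEPES/BSA buffer with 2 mM IBMX. They were then stimulated 30 min with 6 nM PGE2 (EC80). cAMP was measured by HTRF competitive immunoassay against a calibrator; IC50 from duplicate dose-response as % of DMSO control.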
For orientation: Changes in cAMP serve as a functional read-out for many G protein-coupled receptors.
In turn, `Cc1sc2c(C)cc(F)cc2c1CCNc1cc(-c2cc(C(F)(F)F)c(C(=O)O)s2)ncn1` [Example 46, 5-{6-[2-(5-Fluoro-2,7-dimethyl-benzo[b]thiophen-3-yl)-ethylamino]-pyrimidin-4-yl}-3-trifluoromethyl-thiophene-2-carboxylic acid] gave a pIC50 of 7.52.
For `CSc1cc(-c2cc(NCCc3c(C)sc4c(C)cccc34)ncn2)cc(F)c1C(=O)O` [Example 47, 4-{6-[2-(2,7-Dimethyl-benzo[b]thiophen-3-yl)-ethylamino]-pyrimidin-4-yl}-2-fluoro-6-methylsulfanyl-benzoic acid] the value was 6.00; for `CSc1cc(-c2cc(NCCc3c(C)sc4c(C)cccc34)ncn2)cc(Cl)c1C(=O)O` [Example 50, 2-Chloro-4-{6-[2-(2,7-dimethyl-benzo[b]thiophen-3-yl)-ethylamino]-pyrimidin-4-yl}-6-methylsulfanyl-benzoic acid], 6.22.
In the case of `CCOc1cc(-c2cc(NCCc3c(C)sc4c(C)cc(F)cc34)ncn2)sc1CC(=O)O` [Example 52, (3-Ethoxy-5-{6-[2-(5-fluoro-2,7-dimethyl-benzo[b]thiophen-3-yl)-ethylamino]-pyrimidin-4-yl}-thiophen-2-yl)-acetic acid] it was 6.64; in that of `CCOc1cc(-c2cc(NCCc3c(C#N)sc4c(C)cc(F)cc34)ncn2)ccc1C(=O)O` [Example 53, 4-{6-[2-(2-Cyano-5-fluoro-7-methyl-benzo[b]thiophen-3-yl)-ethylamino]-pyrimidin-4-yl}-2-ethoxy-benzoic acid], 7.36.
For `CCOc1cc(-c2cc(NCCc3c(C#N)sc4c(OC)cccc34)ncn2)ccc1C(=O)O` [Example 54, 4-{6-[2-(2-Cyano-7-methoxy-benzo[b]thiophen-3-yl)-ethylamino]-pyrimidin-4-yl}-2-ethoxy-benzoic acid] the value was 7.33; for `CCOc1cc(-c2cc(NCCc3c(C)sc4c(OC)ccc(F)c34)ncn2)ccc1C(=O)O` [Example 55, 2-Ethoxy-4-{6-[2-(4-fluoro-7-methoxy-2-methyl-benzo[b]thiophen-3-yl)-ethylamino]-pyrimidin-4-yl}-benzoic acid], 6.86; for `CCOc1cc(-c2cc(NCCc3c(C)sc4c(C)cc(F)cc34)ncn2)ccc1C(=O)O` [Example 56, 2-Ethoxy-4-{6-[2-(5-fluoro-2,7-dimethyl-benzo[b]thiophen-3-yl)-ethylamino]-pyrimidin-4-yl}-benzoic acid], 6.73.
In turn, `CCOc1cc(-c2cc(NCCc3c(C)sc4c(OC)ccc(Cl)c34)ncn2)ccc1C(=O)O` [Example 57, 4-{6-[2-(4-Chloro-7-methoxy-2-methyl-benzo[b]thiophen-3-yl)-ethylamino]-pyrimidin-4-yl}-2-ethoxy-benzoic acid] had a pIC50 of 6.66.
For `CCOc1cc(-c2cc(NCCc3c(Br)sc4c(C)cc(F)cc34)ncn2)ccc1C(=O)O` [Example 58, 4-{6-[2-(2-Bromo-5-fluoro-7-methyl-benzo[b]thiophen-3-yl)-ethylamino]-pyrimidin-4-yl}-2-ethoxy-benzoic acid] the value was 6.56.
In the case of `CCOc1cc(-c2cc(NCCc3c(Cl)sc4c(C)cc(F)cc34)ncn2)ccc1C(=O)O` [Example 59, 4-{6-[2-(2-Chloro-5-fluoro-7-methyl-benzo[b]thiophen-3-yl)-ethylamino]-pyrimidin-4-yl}-2-ethoxy-benzoic acid] it was 6.55; in that of `CCOc1cc(-c2cc(NCCc3c(C)sc4c(C)cccc34)ncn2)ccc1C(=O)O` [Example 60, 4-{6-[2-(2,7-Dimethyl-benzo[b]thiophen-3-yl)-ethylamino]-pyrimidin-4-yl}-2-ethoxy-benzoic acid], 6.46; in that of `CCOc1cc(-c2cc(NCCc3c(C)sc4c(C)ccc(F)c34)ncn2)ccc1C(=O)O` [Example 61, 2-Ethoxy-4-{6-[2-(4-fluoro-2,7-dimethyl-benzo[b]thiophen-3-yl)-ethylamino]-pyrimidin-4-yl}-benzoic acid], 6.45.
The molecule `CCOc1cc(-c2cc(NCCc3c(C)sc4c(C)c(F)ccc34)ncn2)ccc1C(=O)O` [Example 62, 2-Ethoxy-4-{6-[2-(6-fluoro-2,7-dimethyl-benzo[b]thiophen-3-yl)-ethylamino]-pyrimidin-4-yl}-benzoic acid] showed a pIC50 of 6.41.
In the case of `CCOc1cc(-c2cc(NCCc3c(C)sc4c(Cl)ccc(Cl)c34)ncn2)ccc1C(=O)O` [Example 63, 4-{6-[2-(4,7-Dichloro-2-methyl-benzo[b]thiophen-3-yl)-ethylamino]-pyrimidin-4-yl}-2-ethoxy-benzoic acid], the pIC50 is 6.35.
In the case of `CCOc1cc(-c2cc(NCCc3c(C)oc4c(C)cc(Cl)cc34)ncn2)ccc1C(=O)O` [Example 64, 4-{6-[2-(5-Chloro-2,7-dimethyl-benzofuran-3-yl)-ethylamino]-pyrimidin-4-yl}-2-ethoxy-benzoic acid], the pIC50 is 6.26.
For `CCOc1cc(-c2cc(NCCc3c(C)sc4c(Cl)cc(F)cc34)ncn2)ccc1C(=O)O` [Example 65, 4-{6-[2-(7-Chloro-5-fluoro-2-methyl-benzo[b]thiophen-3-yl)-ethylamino]-pyrimidin-4-yl}-2-ethoxy-benzoic acid] the value was 6.25; for `CCOc1cc(-c2cc(NCCc3c(C)sc4c(C)ccc(Cl)c34)ncn2)ccc1C(=O)O` [Example 66, 4-{6-[2-(4-Chloro-2,7-dimethyl-benzo[b]thiophen-3-yl)-ethylamino]-pyrimidin-4-yl}-2-ethoxy-benzoic acid], 6.22; for `CCOc1cc(-c2cc(NCCc3c(C)oc4c(OC)ccc(F)c34)ncn2)ccc1C(=O)O` [Example 67, 2-Ethoxy-4-{6-[2-(4-fluoro-7-methoxy-2-methyl-benzofuran-3-yl)-ethylamino]-pyrimidin-4-yl}-benzoic acid], 6.20.
`CCOc1cc(-c2cc(NCCc3c(C)oc4c(Cl)cccc34)ncn2)ccc1C(=O)O` [Example 68, 4-{6-[2-(7-Chloro-2-methyl-benzofuran-3-yl)-ethylamino]-pyrimidin-4-yl}-2-ethoxy-benzoic acid] showed a pIC50 of 6.15. The pIC50 values of the last two molecules are within 0.2 log units of each other.
In the case of `CCOc1cc(-c2cc(NCCc3c(C)oc4c(C)cc(F)cc34)ncn2)ccc1C(=O)O` [Example 69, 2-Ethoxy-4-{6-[2-(5-fluoro-2,7-dimethyl-benzofuran-3-yl)-ethylamino]-pyrimidin-4-yl}-benzoic acid] it was 6.12; in that of `CCOc1cc(-c2cc(NCCc3c(C)oc4c(OC)cc(Cl)cc34)ncn2)ccc1C(=O)O` [Example 70, 4-{6-[2-(5-Chloro-7-methoxy-2-methyl-benzofuran-3-yl)-ethylamino]-pyrimidin-4-yl}-2-ethoxy-benzoic acid], 6.01.
For `CCOc1cc(-c2cc(NCCc3c(C)oc4c(Cl)cc(Cl)cc34)ncn2)ccc1C(=O)O` [Example 71, 4-{6-[2-(5,7-Dichloro-2-methyl-benzofuran-3-yl)-ethylamino]-pyrimidin-4-yl}-2-ethoxy-benzoic acid] the value was 5.99; for `CCOc1cc(-c2cc(NCCc3c(C)sc4ccccc34)ncn2)ccc1C(=O)O` [Example 72, 2-Ethoxy-4-{6-[2-(2-methyl-benzo[b]thiophen-3-yl)-ethylamino]-pyrimidin-4-yl}-benzoic acid], 5.80.
`CCOc1cc(-c2cc(NCCc3c(Cl)sc4ccccc34)ncn2)ccc1C(=O)O` [Example 75, 4-{6-[2-(2-chloro-benzo[b]thiophen-3-yl)-ethylamino]-pyrimidin-4-yl}-2-ethoxy-benzoic acid] showed a pIC50 of 5.94. The pIC50 values of the last two molecules are within 0.2 log units of each other.
For `Cc1sc2c(C)cccc2c1CCNc1cc(-c2ccc3c(C(=O)O)coc3c2)ncn1` [Example 76, 6-{6-[2-(2,7-Dimethyl-benzo[b]thiophen-3-yl)-ethylamino]-pyrimidin-4-yl}-benzofuran-3-carboxylic acid] the value was 6.28; for `Cc1sc2c(C)cccc2c1CCNc1cc(-c2ccc3cc(C(=O)O)oc3c2)ncn1` [Example 77, 6-{6-[2-(2,7-Dimethyl-benzo[b]thiophen-3-yl)-ethylamino]-pyrimidin-4-yl}-benzofuran-2-carboxylic acid], 6.89; for `Cc1sc2c(C)cc(F)cc2c1CCNc1cc(-c2ccc(-c3nc(=O)[nH]o3)cc2)ncn1` [Example 79, 5-(4-{6-[2-(5-Fluoro-2,7-dimethyl-benzo[b]thiophen-3-yl)-ethylamino]-pyrimidin-4-yl}-phenyl)-[1,2,4]oxadiazol-3(2H)-one [tautomeric form: 5-(4-(6-((2-(5-fluoro-2,7-dimethylbenzo[b]thiophen-3-yl)ethyl)amino)pyrimidin-4-yl)phenyl)-[1,2,4]oxadiazol-3-ol]], 7.04.
Molecule `Cc1sc2c(C)cc(F)cc2c1CCNc1cc(-c2cc3c(C(=O)O)cccc3[nH]2)ncn1` [Example 82, 2-{6-[2-(5-Fluoro-2,7-dimethyl-benzo[b]thiophen-3-yl)-ethylamino]-pyrimidin-4-yl}-1H-indole-4-carboxylic acid] had a negative logarithm of the IC50 (pIC50) of 6.86.
In the case of `COc1cc(Cl)cc2c(CCNc3cc(-c4ccc(C(=O)O)c(OC5CC5)c4)ncn3)c(C)oc12` [Example 83, 4-{6-[2-(5-Chloro-7-methoxy-2-methyl-benzofuran-3-yl)-ethylamino]-pyrimidin-4-yl}-2-cyclopropoxy-benzoic acid] it was 6.95.
In the case of `COc1ccc(F)c2c(CCNc3cc(-c4ccc(C(=O)O)c(OC5CC5)c4)ncn3)c(C)sc12` [Example 84, 2-Cyclopropoxy-4-{6-[2-(4-fluoro-7-methoxy-2-methyl-benzo[b]thiophen-3-yl)-ethylamino]-pyrimidin-4-yl}-benzoic acid] it was 6.93; in that of `COc1cc(F)c(F)c2c(CCNc3cc(-c4ccc(C(=O)O)c(OC5CC5)c4)ncn3)c(C)oc12` [Example 85, 2-Cyclopropoxy-4-{6-[2-(4,5-difluoro-7-methoxy-2-methyl-benzofuran-3-yl)-ethylamino]-pyrimidin-4-yl}-benzoic acid], 6.59.
